Values quoted from earlier work, collected in patent US9185913B2, “10H-benzo[g]pteridine-2,4-dione derivatives, method for the production thereof, and use thereof” (TRIOPTOTEC GMBH, priority 2011, dated 2015).

Assays:
[1] = tested on: microorganisms
[2] = tested on: microorganisms; remark: listed apart in the source

CC(=O)OC[C@@H](OC(C)=O)[C@@H](OC(C)=O)[C@H](Cn1c2nc(=O)[nH]c(=O)c-2nc2cc(C)c(C)cc21)OC(C)=O [tetraacetylriboflavin]
Affinity for microorganisms [1]: low | Inactivation of microorganisms [2]: inadequate

Cc1cc2nc3c(=O)[nH]c(=O)nc-3n(C[C@H](O)[C@H](O)[C@H](O)CO)c2cc1C [riboflavin]
Affinity for microorganisms [1]: low | Inactivation of microorganisms [2]: inadequate
